Source: US6083932A, “Pharmaceutical compositions derived from ginseng and methods of treatment using same” (CV Technologies Inc., priority 1998, dated 2000)

Key:
[1] = tested on: choline uptake into synaptosomes, whole brain; test: choline uptake into synaptosomes from rat whole brain; format: biochemical; conditions: various doses; n=10
Source text: We also studied the effects of HT1001 on choline uptake in synaptosomes.
We have examined choline uptake in synaptosome preparations from whole brain and hippocampus in the presence of Rb1, HT1001 and HC3.
The magnitude of these effects are consistent with the previous studies.

[2] = tested on: choline uptake into synaptosomes, whole brain; conditions: Benishin 1992 / previously demonstrated; cited from earlier work
[3] = tested on: choline uptake in rat brain synaptomes; test: choline uptake in rat brain synaptosomes (Example 2); format: biochemical; conditions: mean ± SE, n = 4
Source text: Example 2 is a comparison of several batches of Rb1 extract, an extract of total ginsenosides (TS) containing 25% Rb1, 19.4% Rc1 and 21.6% Rg1+Re, and HT1001 on choline uptake in rat brain synaptomes. The Rb1 tested had greater than 98% purity. Rb1-52, Rb1-53 and Rb1-54 represent three different batches of Rb1.

[4] = biological target: T1, monoamine oxidase-A (Rattus norvegicus, UniProt P21396); test: in vitro monoamine oxidase-A inhibiting activity (radiochemical, 5-hydroxytryptamine substrate); format: biochemical; conditions: read-out: inhibition of monoamine oxidase A activity
T1 construct: homogenates of rat brain; from tissue; host or cells: rat brain homogenate
T1 sequence (P21396 1-526): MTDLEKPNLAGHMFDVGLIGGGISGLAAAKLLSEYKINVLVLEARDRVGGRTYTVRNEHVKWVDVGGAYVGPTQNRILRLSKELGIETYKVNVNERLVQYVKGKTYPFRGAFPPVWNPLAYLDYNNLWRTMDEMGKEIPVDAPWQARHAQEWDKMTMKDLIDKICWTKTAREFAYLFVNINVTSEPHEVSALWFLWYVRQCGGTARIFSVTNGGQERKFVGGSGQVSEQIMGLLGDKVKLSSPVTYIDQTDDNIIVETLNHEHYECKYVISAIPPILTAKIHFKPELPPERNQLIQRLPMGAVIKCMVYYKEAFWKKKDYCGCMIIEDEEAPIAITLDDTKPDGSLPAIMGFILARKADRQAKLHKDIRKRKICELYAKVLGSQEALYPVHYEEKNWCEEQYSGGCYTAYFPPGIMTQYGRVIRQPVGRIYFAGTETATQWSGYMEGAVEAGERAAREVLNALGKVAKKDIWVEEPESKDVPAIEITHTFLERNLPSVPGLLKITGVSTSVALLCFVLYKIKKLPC
Method: (§1) Example 1 is a study of the effects of several extracts of HT1001, PQ4, PQ5, PQ6 and pure ginsenosides, on monoamine oxidase A (MAO A) and monoamine oxidase B (MAO B) activity in vitro.
(§2) HT-1001, related extracts and pure ginsenosides were evaluated for in vitro monoamine oxidase-A and monoamine oxidase-B inhibiting activity using the radiochemical procedure of Lyles and Callingham, Biochem. Pharmacol. 31: 1417-1424 (1982), employing either radiolabelled 5-hydroxytryptamine or β-phenylethylamine as substrates for monoamine oxidase-A (MAO-A) or monoamine oxidase-B (MAO-B) respectively. Various concentrations of the compounds of interest were incubated in appropriately diluted homogenates of rat brain in a 0.2 M potassium phosphate buffer. After a 15 minute preincubation period the reaction was initiated by the addition of substrate. Incubations proceded at 37° C. for 10 minutes. Incubation was terminated by the addition of acid and the radiolabelled products (5-hydroxyindoleacetic acid, 5-hydroxyindoleacetaldehyde or phenylacetic acid, phenylacetaldehyde) were extracted and quantified by liquid scintillation counting procedures. Incubations were done in triplicate and incubations including pheneizine a known MAO inhibitor were included as controls and for comparison. The percent inhibition of monoamine oxidase-A or monoamine oxidase-B activity compared to controls containing no experimental material was calculated.

[5] = biological target: T2, monoamine oxidase-B (Rattus norvegicus, UniProt P19643); test: in vitro monoamine oxidase-B inhibiting activity (radiochemical, β-phenylethylamine substrate); format: biochemical; conditions: read-out: inhibition of monoamine oxidase B activity
T2 construct: homogenates of rat brain; from tissue; host or cells: rat brain homogenate
T2 sequence (P19643 1-520): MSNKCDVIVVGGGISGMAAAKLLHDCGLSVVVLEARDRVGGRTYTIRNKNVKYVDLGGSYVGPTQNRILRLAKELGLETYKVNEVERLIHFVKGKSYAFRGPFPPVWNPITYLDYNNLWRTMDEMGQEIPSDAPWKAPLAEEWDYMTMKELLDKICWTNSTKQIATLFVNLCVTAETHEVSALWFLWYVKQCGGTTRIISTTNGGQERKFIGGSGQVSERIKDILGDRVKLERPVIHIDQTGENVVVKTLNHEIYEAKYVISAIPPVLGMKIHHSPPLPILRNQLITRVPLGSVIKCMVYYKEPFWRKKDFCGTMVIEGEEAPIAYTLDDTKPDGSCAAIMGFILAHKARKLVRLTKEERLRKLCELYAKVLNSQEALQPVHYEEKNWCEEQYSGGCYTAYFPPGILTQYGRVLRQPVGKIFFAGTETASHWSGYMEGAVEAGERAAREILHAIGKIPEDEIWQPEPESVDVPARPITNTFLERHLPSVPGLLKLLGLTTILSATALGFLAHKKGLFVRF
Method: as §1, §2

[6] = tested on: rats; test: Morris water maze, learning and memory, scopolamine induced amnesia; format: in vivo, rat; conditions: for mean latency: scopolamine 2 mg/kg, all scopolamine treated animals; for memory effect of scopolamine treatment: 2 mg/kg
Source text: First, we studied the effects of HT1001 on Learning and Memory. […] As HT1001 is a mixture of ginsenosides, it may not have the same properties as pure Rb1. […] Rats are required to learn the location of a hidden platform in a swimming pool. […] The effects of HT1001 on memory can also be examined in scopolamine induced amnesia. If HT1001 enhances memory it should protect against memory loss in scopolamine treated animals.
The Morris water maze task was based on methods previously described (Pitsikas et al, Pharmacol. Biochem. Behav. 47: 95-99 (1994); Smith et al, Psychopharmacol. 114: 651-656 (1994)). The apparatatus consisted of a circular pool (1.7 m diameter, 35 cm deep) which contained water (30° C.) made cloudy by the presence of powdered milk. A moveable platform (10 cm×11.5 cm and 20 cm tall) was placed in the pool such that it was submerged by 3 cm and could not be seen. Each trial involved placing the rat in the pool in one of the four equally spaced quadrants in which the pool was divided. Visual cues consisting of large posters were placed on the walls of the room in which the experiment was conducted, and the experimenters maintained established positions throughout each experiment. During the learning period, animals were allowed to swim freely until they found the escape platform. […] During the initial learning period, all rats were tested sequentially and were given 4 trials per day during which the escape platform was located in a fixed position in the center of the pool. During the scopolamine trials rats were tested sequentially three times on cach day with the three trials being performed between 30 and 45 minutes following scopolamine or saline injection, The latency to reach the platform was recorded.
Experimental Design for Learning and Memory Testing
The specific aim of the experiment was to test if HT1001 affected the acquisition, retention and/or recall of a new task in the presence of scopolamine-induced amnesia. Rats were initially divided into two groups and fed either water (0.5 ml) or HT1001 (200 mg/kg/day in 0.5 ml water by gavage) for the duration of the experiment. Eight days after the initiation of water or HT1001 administration, rats were given the task of learning the position of a platform concealed at the center of the Morris water maze. The rats were placed in the pool 4 times per day for 5 days and the time required to find the platform was recorded (maximum duration 300 seconds). Latency became shorter as the rats learned the task. On day 14, the two groups of rats were further subdivided into four groups. […] In each instance the time to locate the platform (latency) was recorded. […]

[7] = tested on: PC12 cells; test: neurite outgrowth in PC12 cells; format: cell-based; conditions: seven days after treatment
Method: A study of the neurotrophic effects of HT1001 and some pure ginsenosides was conducted. A new mechanism of action for HT1001 was shown, which is the stimulation of neurite outgrowth in a PC12 cell line. […] The beneficial effects (prevention/treatment) of HT-1001 may apply to degenerative diseases such as senile dementia, Parkinson's disease, Alzheimer's disease, multi-infarct dementia, etc. Alzheimer's disease (AD) is associated with degeneration of cholinergic nerve tracts including projections from the basal forebrain to the cortex and hippocampus. The PC12 (pheochromocytoma) cell line is one of the models for the study of the development of these nerve tracts. The cell line is phenotypically a chromaffin cell line, but can be induced to express adrenergic and cholinergic markers as well. This model has the advantages that (1) it is an immortalized cell line, (2) it is sensitive to, but not dependent upon, NGF for survival, and (3) it shares many properties in common with the central cholinergic neurons of the basal forebrain. It has been noted that PC12 cells are not sensitive to all of the trophic factors that central cholinergic neurons respond to, whereas central cholinergic neurons respond to all trophic factors that PC12 cells respond to. […] The cellular responses to Nerve Growth Factor (NGF) and samples were determined by counting the number of cells containing processes in PC12 cells. […] The cells and neurites were counted as follows: The cells with circular or global shape and no neurite outgrowth were scored as 0 (S0). […] Cells with more than two small neurites on the cell bodies were scored as S2. Cells with one or two neurites with a length of at least two times diameter as their body were scored as S3. Cells with more than two long neurites were scored as S4. The neurite index was calculated as below: Neurite index (In)=total neurite Score (ΣS)/total cell number (.[…] is the cell number of every cell field. The test samples included: […]

Row | Molecule | choline uptake ([3]; 0.0011 mg/l) | choline uptake ([3]; 0.011 mg/l) | choline uptake ([3]; 0.11 mg/l) | choline uptake ([3]; 1.1 mg/l) | choline uptake ([3]; 11 mg/l) | further results
1 | C[N+]1(C)CCOC(O)(c2ccc(-c3ccc(C4(O)C[N+](C)(C)CCO4)cc3)cc2)C1 (stereo not drawn) [HC3] |  |  |  |  |  | choline uptake by rat brain synaptosomes (FIG. 28, in words) [1]: inhibits choline uptake; choline uptake (literature) [2]: inhibit choline uptake
2 | CC(C)=CCC[C@](C)(O[C@@H]1O[C@H](CO[C@@H]2O[C@H](CO)[C@@H](O)[C@H](O)[C@H]2O)[C@@H](O)[C@H](O)[C@H]1O)[C@H]1CC[C@]2(C)[C@@H]1[C@H](O)C[C@@H]1[C@@]3(C)CC[C@H](O[C@@H]4O[C@H](CO)[C@@H](O)[C@H](O)[C@H]4O[C@@H]4O[C@H](CO)[C@@H](O)[C@H](O)[C@H]4O)C(C)(C)[C@@H]3CC[C@]12C [Rb1-52, ginsenoside Rb1] | 108 ± 5.7 % of control | 108 ± 4.4 % of control | 108 ± 5.8 % of control | 109 ± 5.4 % of control | 111 ± 3.7 % of control | 
3 | CC(C)=CCC[C@](C)(O[C@@H]1O[C@H](CO[C@@H]2O[C@H](CO)[C@@H](O)[C@H](O)[C@H]2O)[C@@H](O)[C@H](O)[C@H]1O)[C@H]1CC[C@]2(C)[C@@H]1[C@H](O)C[C@@H]1[C@@]3(C)CC[C@H](O[C@@H]4O[C@H](CO)[C@@H](O)[C@H](O)[C@H]4O[C@@H]4O[C@H](CO)[C@@H](O)[C@H](O)[C@H]4O)C(C)(C)[C@@H]3CC[C@]12C [Rb1-53, ginsenoside Rb1] | 106 ± 1.3 % of control | 109 ± 3.6 % of control | 109 ± 3.8 % of control | 112 ± 4.8 % of control | 114 ± 2.5 % of control | 
4 | CC(C)=CCC[C@](C)(O[C@@H]1O[C@H](CO[C@@H]2O[C@H](CO)[C@@H](O)[C@H](O)[C@H]2O)[C@@H](O)[C@H](O)[C@H]1O)[C@H]1CC[C@]2(C)[C@@H]1[C@H](O)C[C@@H]1[C@@]3(C)CC[C@H](O[C@@H]4O[C@H](CO)[C@@H](O)[C@H](O)[C@H]4O[C@@H]4O[C@H](CO)[C@@H](O)[C@H](O)[C@H]4O)C(C)(C)[C@@H]3CC[C@]12C [Rb1-54, ginsenoside Rb1] | 108 ± 3 % of control | 110 ± 3.4 % of control | 110 ± 2.6 % of control | 112 ± 1.2 % of control | 111 ± 2.6 % of control | 
5 | NNCCc1ccccc1 [phenylzine] |  |  |  |  |  | inhibition at 100 µM [4]: 97.5%; inhibition at 100 µM [5]: 93%
6 | CN1[C@@H]2C[C@@H](OC(=O)[C@H](CO)c3ccccc3)C[C@H]1[C@@H]1O[C@@H]12 [scopolamine] |  |  |  |  |  | mean latency ([6]; day 14, third trial): 39.5 ± 8.2 s; memory effect of scopolamine treatment ([6]; day 15): produces a memory deficit; mean latency ([6]; day 16, third trial): 18.4 ± 2.9 s; memory effect of scopolamine treatment ([6]; day 17): produces a memory deficit
7 | Nerve Growth Factor [NGF] |  |  |  |  |  | neurite outgrowth (FIG. 29) [7]: increased neurite outgrowth in PC12 cells in a dose-dependent manner
